According to US8283353B2, “Fused ring compound and use thereof” (Takeda Pharmaceutical Company Limited, priority 2009, dated 2012):

Experiments:
human AT1 receptor = biological target: T1, human AT1 receptor (Homo sapiens, UniProt P30556); assay: AT1 receptor antagonistic activity: [125I]-angiotensin II binding assay on human AT1 receptor-expressing CHO-K1 cellular membrane fraction; conditions: 22.5 pM [125I]-angiotensin II, 1 hr room temperature
T1 construct: expressed in transfected cells; membrane fraction
T1 sequence (P30556 1-359): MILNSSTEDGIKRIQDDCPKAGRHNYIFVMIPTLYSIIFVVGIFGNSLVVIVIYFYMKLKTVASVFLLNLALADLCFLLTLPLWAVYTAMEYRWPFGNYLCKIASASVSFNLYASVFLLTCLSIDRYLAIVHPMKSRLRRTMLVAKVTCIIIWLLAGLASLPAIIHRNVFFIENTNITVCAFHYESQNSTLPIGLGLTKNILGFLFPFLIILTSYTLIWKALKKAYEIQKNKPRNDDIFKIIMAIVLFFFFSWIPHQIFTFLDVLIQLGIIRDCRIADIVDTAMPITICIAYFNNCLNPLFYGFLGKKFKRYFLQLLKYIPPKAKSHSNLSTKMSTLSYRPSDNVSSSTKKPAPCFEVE
Method in brief: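 Competition binding used radiolabelled angiotensin II on stably transfected CHO-K1 membrane fractions in Tris pH 7.4/MgCl2 buffer, optionally containing 0.3 mg/mL fatty acid-free BSA, 1 hr at room temperature. Filtration onto GF/C separated bound tracer, and nonspecific binding was measured with candesartan.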

human PPARγ = biological target: T2, human PPARγ (Homo sapiens, UniProt P37231); assay: PPARγ agonistic activity: luciferase reporter assay in PPARγ:RXRα:4ERPP/CHO-K1 cells; type: cell-based; conditions: CHO-K1, test compound 10^−6 M; luciferase activity of control compound X (1 μM) = 100%, non-administration group = 0%
T2 construct: expressed in transfected cells
T2 sequence (P37231 1-477 isoform P37231-2): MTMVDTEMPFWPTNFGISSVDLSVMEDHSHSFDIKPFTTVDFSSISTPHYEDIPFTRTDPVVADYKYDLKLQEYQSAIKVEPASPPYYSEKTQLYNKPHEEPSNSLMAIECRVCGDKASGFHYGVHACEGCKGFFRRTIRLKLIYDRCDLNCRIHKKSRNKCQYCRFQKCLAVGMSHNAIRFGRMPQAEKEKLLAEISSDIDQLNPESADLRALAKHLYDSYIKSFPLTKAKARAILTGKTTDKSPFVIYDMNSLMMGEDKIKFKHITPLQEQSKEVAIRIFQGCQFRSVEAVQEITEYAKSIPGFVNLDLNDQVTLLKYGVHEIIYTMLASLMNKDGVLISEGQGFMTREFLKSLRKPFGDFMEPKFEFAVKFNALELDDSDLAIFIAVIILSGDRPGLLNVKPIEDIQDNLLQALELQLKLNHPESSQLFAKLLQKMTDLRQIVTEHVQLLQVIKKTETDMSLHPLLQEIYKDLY
T2 sequence (P19793 1-462 partner): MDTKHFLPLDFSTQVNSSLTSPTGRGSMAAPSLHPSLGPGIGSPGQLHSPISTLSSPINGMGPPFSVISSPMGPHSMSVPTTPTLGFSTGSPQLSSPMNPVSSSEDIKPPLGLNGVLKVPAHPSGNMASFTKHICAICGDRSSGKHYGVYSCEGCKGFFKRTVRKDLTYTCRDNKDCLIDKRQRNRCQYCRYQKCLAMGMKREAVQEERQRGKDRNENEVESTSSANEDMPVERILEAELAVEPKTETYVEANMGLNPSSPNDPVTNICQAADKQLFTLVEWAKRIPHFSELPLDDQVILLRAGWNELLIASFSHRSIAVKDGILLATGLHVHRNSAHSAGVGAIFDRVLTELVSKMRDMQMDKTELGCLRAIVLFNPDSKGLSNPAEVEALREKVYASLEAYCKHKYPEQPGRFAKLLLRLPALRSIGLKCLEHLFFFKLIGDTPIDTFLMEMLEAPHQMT
Method in brief: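 Activity is expressed relative to untreated cells (0%) and 1 μM reference compound X (100%), from luciferase luminescence. Reporter line: PPARγ:RXRα:4ERPP/CHO-K1, exposed to compound for one day at 37 °C in F12 medium containing 0.1% fatty-acid-free BSA.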

| Compound | IC50 (human AT1 receptor) | activation at 1 µM (human PPARγ) |
| --- | --- | --- |
| CCCc1c(Cc2ccc(-c3ccccc3-c3noc(=O)[nH]3)cc2F)c(=O)n([C@H]2C[C@H](OCC(C)(C)O)C2)c2ncnn12 [Example 367, 6-{[3-fluoro-2′-(5-oxo-4,5-dihydro-1,2,4-oxadiazol-3-yl)biphenyl-4-yl]methyl}-4-[trans-3-(2-hydroxy-2-methylpropoxy)cyclobutyl]-7-propyl[1,2,4]triazolo[1,5-a]pyrimidin-5(4H)-one] | 2.2 nM | 25% |
| CCCc1c(Cc2ccc(-c3ccccc3-c3noc(=O)[nH]3)cc2F)c(=O)n([C@H]2CC[C@](C)(OCC(C)(C)O)CC2)c2nc(C)nn12 [Example 368, 6-{[3-fluoro-2′-(5-oxo-4,5-dihydro-1,2,4-oxadiazol-3-yl)biphenyl-4-yl]methyl}-4-[trans-4-(2-hydroxy-2-methylpropoxy)-4-methylcyclohexyl]-2-methyl-7-propyl[1,2,4]triazolo[1,5-a]pyrimidin-5(4H)-one] | 2.2 nM | 19% |
| CCCc1c(Cc2ccc(-c3ccccc3-c3noc(=O)[nH]3)cc2F)c(=O)n([C@H]2CC[C@H](OC(C)C3(O)CCC3)CC2)c2ncnn12 (stereo partly drawn) [Example 371, 6-{[3-fluoro-2′-(5-oxo-4,5-dihydro-1,2,4-oxadiazol-3-yl)biphenyl-4-yl]methyl}-4-{trans-4-[1-(1-hydroxycyclobutyl)ethoxy]cyclohexyl}-7-propyl[1,2,4]triazolo[1,5-a]pyrimidin-5(4H)-one] | 2.1 nM | 33% |
| CCCc1c(Cc2ccc(-c3ccccc3-c3noc(=O)[nH]3)cc2)c(=O)n(C2CCN(Cc3ccccc3)CC2)c2ncnn12 [Example 373, 4-(1-benzylpiperidin-4-yl)-6-{[2′-(5-oxo-4,5-dihydro-1,2,4-oxadiazol-3-yl)biphenyl-4-yl]methyl}-7-propyl[1,2,4]triazolo[1,5-a]pyrimidin-5(4H)-one] | 3.2 nM | 16% |
| CCCc1c(Cc2ccc(-c3ccccc3-c3noc(=O)[nH]3)cc2)c(=O)n(C2CCC(C(C)(C)O)CC2)c2ncnn12 (centres unmarked) [Example 376, 4-[4-(1-hydroxy-1-methylethyl)cyclohexyl]-6-{[2′-(5-oxo-4,5-dihydro-1,2,4-oxadiazol-3-yl)biphenyl-4-yl]methyl}-7-propyl[1,2,4]triazolo[1,5-a]pyrimidin-5(4H)-one] | 1.2 nM | 19% |
| CCCc1c(Cc2ccc(-c3ccccc3-c3noc(=O)[nH]3)cc2)c(=O)n([C@H]2CC[C@H](OCC(C)O)CC2)c2ncnn12 (stereo partly drawn) [Example 379, 4-[trans-4-(2-hydroxypropoxy)cyclohexyl]-6-{[2′-(5-oxo-4,5-dihydro-1,2,4-oxadiazol-3-yl)biphenyl-4-yl]methyl}-7-propyl[1,2,4]triazolo[1,5-a]pyrimidin-5(4H)-one] | 2.2 nM | 34% |
| CCCc1c(Cc2ccc(-c3ccccc3-c3noc(=O)[nH]3)cc2)c(=O)n(C2CCN(c3ccc(O)cc3)CC2)c2ncnn12 [Example 382, 4-[1-(4-hydroxyphenyl)piperidin-4-yl]-6-{[2′-(5-oxo-4,5-dihydro-1,2,4-oxadiazol-3-yl)biphenyl-4-yl]methyl}-7-propyl[1,2,4]triazolo[1,5-a]pyrimidin-5(4H)-one] | 2.9 nM | 35% |
| CCCc1c(Cc2ccc(-c3ccccc3-c3noc(=O)[nH]3)cc2)c(=O)n([C@H]2CC[C@](C)(OCC(C)(C)O)CC2)c2ncnn12 [Example 385, 4-[trans-4-(2-hydroxy-2-methylpropoxy)-4-methylcyclohexyl]-6-{[2′-(5-oxo-4,5-dihydro-1,2,4-oxadiazol-3-yl)biphenyl-4-yl]methyl}-7-propyl[1,2,4]triazolo[1,5-a]pyrimidin-5(4H)-one] | 2 nM | 23% |
| CCCc1c(Cc2ccc(-c3ccccc3-c3noc(=O)[nH]3)cc2)c(=O)n([C@H]2CC[C@]3(CCC(CO)O3)CC2)c2ncnn12 (stereo partly drawn) [Example 391, 4-[(5S,8S)-2-(hydroxymethyl)-1-oxaspiro[4.5]dec-8-yl]-6-{[2′-(5-oxo-4,5-dihydro-1,2,4-oxadiazol-3-yl)biphenyl-4-yl]methyl}-7-propyl[1,2,4]triazolo[1,5-a]pyrimidin-5(4H)-one] | 3.1 nM | 28% |
| CCCc1c(Cc2ccc(-c3ccccc3-c3noc(=O)[nH]3)cc2)c(=O)n([C@H]2CC[C@@]3(CCC(CO)O3)CC2)c2ncnn12 (stereo partly drawn) [Example 392, 4-[(5R,8R)-2-(hydroxymethyl)-1-oxaspiro[4.5]dec-8-yl]-6-{[2′-(5-oxo-4,5-dihydro-1,2,4-oxadiazol-3-yl)biphenyl-4-yl]methyl}-7-propyl[1,2,4]triazolo[1,5-a]pyrimidin-5(4H)-one] | 2.2 nM | 20% |
| CCCc1c(Cc2ccc(-c3ccccc3-c3noc(=O)[nH]3)cc2)c(=O)n([C@H]2CC[C@H](OCC(C)=O)CC2)c2ccnn12 [Example 420, 6-{[2′-(5-oxo-4,5-dihydro-1,2,4-oxadiazol-3-yl)biphenyl-4-yl]methyl}-4-[trans-4-(2-oxopropoxy)cyclohexyl]-7-propylpyrazolo[1,5-a]pyrimidin-5(4H)-one] | 2.2 nM | 21% |
| CCCc1c(Cc2ccc(-c3ccccc3-c3noc(=O)[nH]3)cc2)c(=O)n([C@H]2CC[C@H](OCC3(O)CC3)CC2)c2ccnn12 [Example 427, 4-{trans-4-[(1-hydroxycyclopropyl)methoxy]cyclohexyl}-6-{[2′-(5-oxo-4,5-dihydro-1,2,4-oxadiazol-3-yl)biphenyl-4-yl]methyl}-7-propylpyrazolo[1,5-a]pyrimidin-5(4H)-one] | 1.9 nM | 18% |
| CCCCc1c(Cc2ccc(-c3ccccc3-c3noc(=O)[nH]3)cc2)c(=O)n([C@H]2CC[C@H](OCC(C)(C)O)CC2)c2ccnn12 [Example 434, 7-butyl-4-[trans-4-(2-hydroxy-2-methylpropoxy)cyclohexyl]-6-{[2′-(5-oxo-4,5-dihydro-1,2,4-oxadiazol-3-yl)biphenyl-4-yl]methyl}pyrazolo[1,5-a]pyrimidin-5(4H)-one] | 2.1 nM | 25% |
| CCCc1c(Cc2ccc(-c3ccccc3-c3noc(=O)[nH]3)cc2F)c(=O)n([C@H]2CC[C@H](OCC(C)(C)O)CC2)c2ccnn12 [Example 435, 6-{[3-fluoro-2′-(5-oxo-4,5-dihydro-1,2,4-oxadiazol-3-yl)biphenyl-4-yl]methyl}-4-[trans-4-(2-hydroxy-2-methylpropoxy)cyclohexyl]-7-propylpyrazolo[1,5-a]pyrimidin-5(4H)-one] | 1.7 nM | 30% |
| CCCc1c(Cc2ccc(-c3ccccc3-c3noc(=O)[nH]3)cc2)c(=O)n([C@H]2CC[C@H](OCC(C)(C)O)CC2)c2c(F)cnn12 [Example 442, 3-fluoro-4-[trans-4-(2-hydroxy-2-methylpropoxy)cyclohexyl]-6-{[2′-(5-oxo-4,5-dihydro-1,2,4-oxadiazol-3-yl)biphenyl-4-yl]methyl}-7-propylpyrazolo[1,5-a]pyrimidin-5(4H)-one] | 2 nM | 22% |
| CCCCc1c(Cc2ccc(-c3ccccc3-c3nnn[nH]3)cc2F)c(=O)n([C@H]2CC[C@H](OCC(C)(C)O)CC2)c2ncnn12 [Example 457, 7-butyl-6-{[3-fluoro-2′-(1H-tetrazol-5-yl)biphenyl-4-yl]methyl}-4-[trans-4-(2-hydroxy-2-methylpropoxy)cyclohexyl][1,2,4]triazolo[1,5-a]pyrimidin-5(4H)-one] | 1.8 nM | 19% |
